Paper PMC9011347, “Small-Molecule Inhibitors Targeting Lipolysis in Human Adipocytes” (Journal of the American Chemical Society, 2022)

System: HepG2^AKO cells
Experiment: Seahorse cellular respiration (OCR) in ATGL knockout cells
Assay type: cell-based, human
Details: NG-497 40 μM, galactose medium
Description: (a) HepG2 cells were treated with NG-497 (40 μM) or DMSO as control and oxygen consumption rate (OCR) was determined in Seahorse growth medium supplemented with glucose (25 mM) using the SeaHorse XF96 extracellular flux analyzer. OCR was determined after subsequent addition of 1 μM Oligomycin (ATP-synthase inhibitor), 1 μM FCCP (uncoupler), and 1 μM antimycin/rotenone (electron transport chain inhibitors). (b) Statistical analysis of basal respiration (BR), maximal respiration (MR), proton leak (PL), ATP production (ATPP), spare respiratory capacity (SRC), and nonmitochondrial oxygen consumption (NMOC) of control and NG-497-treated cells. (c) Extracellular acidification rate (ECAR) and (d) OCR of HepG2 cells were determined in Seahorse growth medium supplemented with glucose (25 mM) or galactose (10 mM). […] Growth of cells expressing (HepG2^control) or lacking functional ATGL (HepG2^AKO) was determined using a BioRad cell analyzer. ATGL expression was analyzed by Western blotting analysis using an anti-ATGL antibody and GAPDH as a loading control (inset). (h) Acylglycerol content of HepG2^control and HepG2^AKO cells was determined by a commercial kit (TG Infinity reagent, Thermo Fisher Scientific). […] Statistical significance was determined via Student’s t test (*p < 0.05; **p < 0.01; ***p < 0.001) or ANOVA followed by Bonferroni post hoc test (^#p < 0.05; ^##p < 0.01; ^###p < 0.001). […]

CCOc1ccc(-c2cc(OC)cc(C(=O)OC(C)C)n2)cc1 [NG-497] was tested. Which effect on respiration did it give?
The effect on respiration was “no effect on respiration”.
